{
  "source": "PubChem BioAssay (NCI)",
  "assay_in_all_cases": "inhibition of tumour cell growth, NCI panel, 48 h",
  "key": {"[1]": {"system": "SW-620 colon"}, "[2]": {"system": "CCRF-CEM leukemia"}, "[3]": {"system": "K-562 leukemia"}, "[4]": {"system": "NCI-H23 lung"}, "[5]": {"system": "MALME-3M melanoma"}, "[6]": {"system": "MDA-MB-231 breast"}, "[7]": {"system": "U251 CNS"}, "[8]": {"system": "RXF 393 renal"}, "[9]": {"system": "SR leukemia"}, "[10]": {"system": "SN12C renal"}},
  "note": "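All cell lines were grown in 96-well plates and treated with compound for 48 hours. GI50: concentration for 50% inhibition of growth. Definition used: TGI = concentration required for complete inhibition of growth.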",
  "data": [
    {"molecule": "Oc1c(Cl)cc(Cl)c2ccc(Cn3cc(-c4ccc(C(F)(F)F)cc4)nn3)nc12", "values": [
      {"measurement": "GI50", "setting": "[1]", "value": 0.493, "unit": "µM"},
      {"measurement": "TGI", "setting": "[1]", "value": 1.83, "unit": "µM"},
      {"measurement": "GI50", "setting": "[2]", "value": 357, "unit": "nM"},
      {"measurement": "TGI", "setting": "[2]", "value": "> 100", "unit": "µM"},
      {"measurement": "GI50", "setting": "[3]", "value": 0.479, "unit": "µM"},
      {"measurement": "TGI", "setting": "[3]", "value": "> 100", "unit": "µM"},
      {"measurement": "GI50", "setting": "[4]", "value": 2.04, "unit": "µM"},
      {"measurement": "TGI", "setting": "[4]", "value": 4.76, "unit": "µM"},
      {"measurement": "GI50", "setting": "[5]", "value": 1.63, "unit": "µM"},
      {"measurement": "TGI", "setting": "[5]", "value": 3.13, "unit": "µM"},
      {"measurement": "GI50", "setting": "[6]", "value": 2.19, "unit": "µM"},
      {"measurement": "TGI", "setting": "[6]", "value": 6.81, "unit": "µM"},
      {"measurement": "GI50", "setting": "[7]", "value": 4.43, "unit": "µM"},
      {"measurement": "TGI", "setting": "[7]", "value": 17.2, "unit": "µM"},
      {"measurement": "GI50", "setting": "[8]", "value": 402, "unit": "nM"},
      {"measurement": "TGI", "setting": "[8]", "value": 1.79, "unit": "µM"},
      {"measurement": "GI50", "setting": "[9]", "value": 651, "unit": "nM"},
      {"measurement": "TGI", "setting": "[9]", "value": "> 100", "unit": "µM"},
      {"measurement": "GI50", "setting": "[10]", "value": 2.91, "unit": "µM"},
      {"measurement": "TGI", "setting": "[10]", "value": 11.6, "unit": "µM"}
    ]},
    {"molecule": "N#Cc1cnc(Nc2cc(NC[C@H]3CNCCO3)c(C(F)(F)F)cn2)cn1", "values": [
      {"measurement": "GI50", "setting": "[1]", "value": 18.1, "unit": "µM"},
      {"measurement": "TGI", "setting": "[1]", "value": 73.8, "unit": "µM"},
      {"measurement": "GI50", "setting": "[2]", "value": 800, "unit": "nM"},
      {"measurement": "TGI", "setting": "[2]", "value": "> 100", "unit": "µM"},
      {"measurement": "GI50", "setting": "[3]", "value": 3.19, "unit": "µM"},
      {"measurement": "TGI", "setting": "[3]", "value": 22.1, "unit": "µM"},
      {"measurement": "GI50", "setting": "[4]", "value": 0.791, "unit": "µM"},
      {"measurement": "TGI", "setting": "[4]", "value": 26.8, "unit": "µM"},
      {"measurement": "GI50", "setting": "[5]", "value": 10.4, "unit": "µM"},
      {"measurement": "TGI", "setting": "[5]", "value": 27.8, "unit": "µM"},
      {"measurement": "GI50", "setting": "[6]", "value": 13.1, "unit": "µM"},
      {"measurement": "TGI", "setting": "[6]", "value": 47, "unit": "µM"},
      {"measurement": "GI50", "setting": "[7]", "value": 21.8, "unit": "µM"},
      {"measurement": "TGI", "setting": "[7]", "value": 73, "unit": "µM"},
      {"measurement": "GI50", "setting": "[8]", "value": 858, "unit": "nM"},
      {"measurement": "TGI", "setting": "[8]", "value": 18.2, "unit": "µM"},
      {"measurement": "GI50", "setting": "[9]", "value": 640, "unit": "nM"},
      {"measurement": "TGI", "setting": "[9]", "value": 24, "unit": "µM"},
      {"measurement": "GI50", "setting": "[10]", "value": 17.7, "unit": "µM"},
      {"measurement": "TGI", "setting": "[10]", "value": 83, "unit": "µM"}
    ]},
    {"molecule": "COC(=O)c1cc2c3ccccc3n3c2c(n1)-c1[nH]c2ccccc2c(=O)c1C3", "values": [
      {"measurement": "GI50", "setting": "[1]", "value": "> 100", "unit": "µM"},
      {"measurement": "TGI", "setting": "[1]", "value": "> 100", "unit": "µM"},
      {"measurement": "GI50", "setting": "[2]", "value": 2190, "unit": "nM"},
      {"measurement": "TGI", "setting": "[2]", "value": "> 100", "unit": "µM"},
      {"measurement": "GI50", "setting": "[3]", "value": "> 100", "unit": "µM"},
      {"measurement": "TGI", "setting": "[3]", "value": "> 100", "unit": "µM"},
      {"measurement": "GI50", "setting": "[4]", "value": 38.9, "unit": "µM"},
      {"measurement": "TGI", "setting": "[4]", "value": "> 100", "unit": "µM"},
      {"measurement": "GI50", "setting": "[5]", "value": "> 100", "unit": "µM"},
      {"measurement": "TGI", "setting": "[5]", "value": "> 100", "unit": "µM"},
      {"measurement": "GI50", "setting": "[6]", "value": 33.7, "unit": "µM"},
      {"measurement": "TGI", "setting": "[6]", "value": "> 100", "unit": "µM"},
      {"measurement": "GI50", "setting": "[7]", "value": 15.2, "unit": "µM"},
      {"measurement": "TGI", "setting": "[7]", "value": 52.3, "unit": "µM"},
      {"measurement": "GI50", "setting": "[8]", "value": 16300, "unit": "nM"},
      {"measurement": "TGI", "setting": "[8]", "value": 66.9, "unit": "µM"},
      {"measurement": "GI50", "setting": "[9]", "value": 17300, "unit": "nM"},
      {"measurement": "TGI", "setting": "[9]", "value": 96.9, "unit": "µM"},
      {"measurement": "GI50", "setting": "[10]", "value": "> 100", "unit": "µM"},
      {"measurement": "TGI", "setting": "[10]", "value": "> 100", "unit": "µM"}
    ]},
    {"molecule": "CCCCCCCCCCCCOC1C(CNC(=O)C2OC3OC(C)(C)OC3C2NC(=O)CN2CCN(c3ccc(OC)cc3)CC2)OC2OC(C)(C)OC21", "note": "(stereo not given)", "values": [
      {"measurement": "GI50", "setting": "[1]", "value": 3.75, "unit": "µM"},
      {"measurement": "TGI", "setting": "[1]", "value": 28.3, "unit": "µM"},
      {"measurement": "GI50", "setting": "[2]", "value": 4100, "unit": "nM"},
      {"measurement": "TGI", "setting": "[2]", "value": 16.9, "unit": "µM"},
      {"measurement": "GI50", "setting": "[3]", "value": 3.31, "unit": "µM"},
      {"measurement": "TGI", "setting": "[3]", "value": 11.2, "unit": "µM"},
      {"measurement": "GI50", "setting": "[4]", "value": 9.68, "unit": "µM"},
      {"measurement": "TGI", "setting": "[4]", "value": 32, "unit": "µM"},
      {"measurement": "GI50", "setting": "[5]", "value": 11.9, "unit": "µM"},
      {"measurement": "TGI", "setting": "[5]", "value": 24.1, "unit": "µM"},
      {"measurement": "GI50", "setting": "[6]", "value": 5.65, "unit": "µM"},
      {"measurement": "TGI", "setting": "[6]", "value": 17.8, "unit": "µM"},
      {"measurement": "GI50", "setting": "[7]", "value": 4.74, "unit": "µM"},
      {"measurement": "TGI", "setting": "[7]", "value": 15.8, "unit": "µM"},
      {"measurement": "GI50", "setting": "[8]", "value": 2100, "unit": "nM"},
      {"measurement": "TGI", "setting": "[8]", "value": 4.44, "unit": "µM"},
      {"measurement": "GI50", "setting": "[9]", "value": 2860, "unit": "nM"},
      {"measurement": "TGI", "setting": "[9]", "value": 6.07, "unit": "µM"},
      {"measurement": "GI50", "setting": "[10]", "value": 3.41, "unit": "µM"},
      {"measurement": "TGI", "setting": "[10]", "value": 11.7, "unit": "µM"}
    ]},
    {"molecule": "CC1(C)CCCC(C)(C2CCC3(C)C2C(O)CC2C4(C)CCC(O)C(C)(C)C4CCC23C)O1", "note": "(stereo not given)", "values": [
      {"measurement": "TGI", "setting": "[1]", "value": "> 100", "unit": "µM"},
      {"measurement": "TGI", "setting": "[2]", "value": "> 100", "unit": "µM"},
      {"measurement": "TGI", "setting": "[3]", "value": "> 100", "unit": "µM"},
      {"measurement": "TGI", "setting": "[4]", "value": "> 100", "unit": "µM"},
      {"measurement": "TGI", "setting": "[5]", "value": "> 100", "unit": "µM"},
      {"measurement": "TGI", "setting": "[6]", "value": "> 100", "unit": "µM"},
      {"measurement": "TGI", "setting": "[7]", "value": "> 100", "unit": "µM"},
      {"measurement": "TGI", "setting": "[8]", "value": 30.9, "unit": "µM"},
      {"measurement": "TGI", "setting": "[9]", "value": "> 100", "unit": "µM"},
      {"measurement": "TGI", "setting": "[10]", "value": "> 100", "unit": "µM"}
    ]},
    {"molecule": "CCOc1ccn(-c2ccc(F)cc2)c(=O)c1C(=O)Nc1ccc(Oc2ccnc(N)c2Cl)c(F)c1", "values": [
      {"measurement": "GI50", "setting": "[1]", "value": 5.01, "unit": "µM"},
      {"measurement": "TGI", "setting": "[1]", "value": 38.4, "unit": "µM"},
      {"measurement": "GI50", "setting": "[2]", "value": 3630, "unit": "nM"},
      {"measurement": "TGI", "setting": "[2]", "value": 36.9, "unit": "µM"},
      {"measurement": "GI50", "setting": "[3]", "value": 4.42, "unit": "µM"},
      {"measurement": "TGI", "setting": "[3]", "value": "> 100", "unit": "µM"},
      {"measurement": "GI50", "setting": "[4]", "value": 10.4, "unit": "µM"},
      {"measurement": "TGI", "setting": "[4]", "value": "> 100", "unit": "µM"},
      {"measurement": "GI50", "setting": "[5]", "value": 7.72, "unit": "µM"},
      {"measurement": "TGI", "setting": "[5]", "value": 46.4, "unit": "µM"},
      {"measurement": "GI50", "setting": "[6]", "value": 6.33, "unit": "µM"},
      {"measurement": "TGI", "setting": "[6]", "value": 23.9, "unit": "µM"},
      {"measurement": "GI50", "setting": "[7]", "value": 26, "unit": "µM"},
      {"measurement": "TGI", "setting": "[7]", "value": "> 100", "unit": "µM"},
      {"measurement": "GI50", "setting": "[8]", "value": 7060, "unit": "nM"},
      {"measurement": "TGI", "setting": "[8]", "value": 36.8, "unit": "µM"},
      {"measurement": "GI50", "setting": "[9]", "value": 6170, "unit": "nM"},
      {"measurement": "TGI", "setting": "[9]", "value": 28.7, "unit": "µM"},
      {"measurement": "GI50", "setting": "[10]", "value": 5.03, "unit": "µM"},
      {"measurement": "TGI", "setting": "[10]", "value": "> 100", "unit": "µM"}
    ]}
  ]
}
